{"source": "paper PMC4558140", "about": "“Irreversible dual inhibitory mode: the novel Btk inhibitor PLS-123 demonstrates promising anti-tumor activity in human B-cell lymphoma” (Oncotarget, 2015)", "target": "Btk (Homo sapiens, UniProt Q06187)", "sequence (Q06187 2-659)": "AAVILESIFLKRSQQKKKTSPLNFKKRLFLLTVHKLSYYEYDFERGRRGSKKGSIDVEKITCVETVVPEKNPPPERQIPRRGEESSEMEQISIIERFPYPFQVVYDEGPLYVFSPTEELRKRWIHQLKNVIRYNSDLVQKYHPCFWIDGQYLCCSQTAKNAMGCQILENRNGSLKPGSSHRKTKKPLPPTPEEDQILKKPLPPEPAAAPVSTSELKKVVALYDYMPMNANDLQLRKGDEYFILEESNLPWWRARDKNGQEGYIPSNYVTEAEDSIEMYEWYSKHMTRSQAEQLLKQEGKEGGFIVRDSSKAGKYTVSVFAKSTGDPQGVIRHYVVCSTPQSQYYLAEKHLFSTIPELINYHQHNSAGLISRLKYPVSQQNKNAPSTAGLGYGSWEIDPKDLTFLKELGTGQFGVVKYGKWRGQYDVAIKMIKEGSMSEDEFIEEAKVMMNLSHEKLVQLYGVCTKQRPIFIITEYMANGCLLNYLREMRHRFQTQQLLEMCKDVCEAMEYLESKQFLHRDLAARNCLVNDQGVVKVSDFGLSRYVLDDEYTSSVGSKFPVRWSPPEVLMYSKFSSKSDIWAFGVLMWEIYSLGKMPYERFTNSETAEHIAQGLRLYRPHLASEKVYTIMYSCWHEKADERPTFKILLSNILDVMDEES", "experiment": "crystal structure of human Btk in complex with PLS-123 (Figure 1B); IC50 also stated; Western blot of p-Tyr223/p-Tyr551 Btk in cells", "assay_type": "binding", "from_the_text": "crystal structure of human Btk in complex with PLS-123 (Figure 1B); IC50 also stated; Western blot of p-Tyr223/p-Tyr551 Btk in cells on Btk | Crystal structure of the human Btk in complex with PLS-123.", "note": "pIC50: −log10 of the molar value.", "data": [{"molecule": "C=CC(=O)NCC(=O)Nc1cccc(Nc2ncc(NC(=O)c3cc(NC(=O)c4cccc(C(F)(F)F)c4)ccc3C)cn2)c1", "note": "[PLS-123]", "values": [{"measurement": "pIC50", "result": "> 8.30"}]}]}
